Measurements as given in PubChem BioAssay (NCI).
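Protocol summary: plate cells (96-well), add compound at 5 concentrations, incubate 48 h, interpolate endpoints linearly. TGI is the concentration that stops growth completely.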

Experiments:
Assay in all cases: growth of human tumour cells (NCI), 48 h
OVCAR-8 ovarian = system: OVCAR-8 ovarian
NCI-H23 lung = system: NCI-H23 lung
ACHN renal = system: ACHN renal
NCI-H226 lung = system: NCI-H226 lung
SF-539 CNS = system: SF-539 CNS
786-0 renal = system: 786-0 renal
SK-MEL-2 melanoma = system: SK-MEL-2 melanoma
MDA-MB-231 breast = system: MDA-MB-231 breast
SK-MEL-5 melanoma = system: SK-MEL-5 melanoma
SR leukemia = system: SR leukemia
UACC-257 melanoma = system: UACC-257 melanoma
DU-145 prostate = system: DU-145 prostate
SW-620 colon = system: SW-620 colon
SNB-19 CNS = system: SNB-19 CNS
CAKI-1 renal = system: CAKI-1 renal
NCI-H460 lung = system: NCI-H460 lung
HT29 colon = system: HT29 colon
K-562 leukemia = system: K-562 leukemia
MDA-MB-435 = system: MDA-MB-435
HCT-15 colon = system: HCT-15 colon
NCI-H522 lung = system: NCI-H522 lung
MCF7 breast = system: MCF7 breast
OVCAR-5 ovarian = system: OVCAR-5 ovarian
MALME-3M melanoma = system: MALME-3M melanoma
PC-3 prostate = system: PC-3 prostate
TK-10 renal = system: TK-10 renal
EKVX NSCLC = system: EKVX NSCLC
IGROV1 ovarian = system: IGROV1 ovarian
OVCAR-4 ovarian = system: OVCAR-4 ovarian
HL-60(TB) leukemia = system: HL-60(TB) leukemia
UACC-62 melanoma = system: UACC-62 melanoma
U251 CNS = system: U251 CNS
MOLT-4 leukemia = system: MOLT-4 leukemia
HCT-116 colon = system: HCT-116 colon
RXF 393 renal = system: RXF 393 renal
SF-295 CNS = system: SF-295 CNS
HOP-62 NSCLC = system: HOP-62 NSCLC
COLO 205 colon = system: COLO 205 colon
HS 578T breast = system: HS 578T breast
OVCAR-3 ovarian = system: OVCAR-3 ovarian
RPMI-8226 leukemia = system: RPMI-8226 leukemia
SN12C renal = system: SN12C renal
KM12 colon = system: KM12 colon
BT-549 breast = system: BT-549 breast
SNB-75 CNS = system: SNB-75 CNS
SK-MEL-28 melanoma = system: SK-MEL-28 melanoma
A498 renal = system: A498 renal
NCI/ADR-RES ovarian = system: NCI/ADR-RES ovarian
HCC-2998 colon = system: HCC-2998 colon
SF-268 CNS = system: SF-268 CNS
UO-31 renal = system: UO-31 renal
MDA-N = system: MDA-N
M14 melanoma = system: M14 melanoma
A549 NSCLC = system: A549 NSCLC
HOP-92 NSCLC = system: HOP-92 NSCLC
CCRF-CEM leukemia = system: CCRF-CEM leukemia
SK-OV-3 ovarian = system: SK-OV-3 ovarian
LOX IMVI melanoma = system: LOX IMVI melanoma

## O=c1[nH]c2[nH]c(-c3ccc(Br)cc3)cc2c2ccccc12
OVCAR-8 ovarian
  TGI: > 100 µM
NCI-H23 lung
  TGI: > 100 µM
ACHN renal
  TGI: > 100 µM
NCI-H226 lung
  TGI: > 100 µM
SF-539 CNS
  TGI: > 100 µM
786-0 renal
  TGI: > 100 µM
SK-MEL-2 melanoma
  TGI: > 100 µM
MDA-MB-231 breast
  TGI: 44.6 µM
SK-MEL-5 melanoma
  TGI: > 100 µM
SR leukemia
  TGI: 26.9 µM
UACC-257 melanoma
  TGI: > 100 µM
DU-145 prostate
  TGI: > 100 µM
SW-620 colon
  TGI: > 100 µM
SNB-19 CNS
  TGI: > 100 µM
CAKI-1 renal
  TGI: > 100 µM
NCI-H460 lung
  TGI: > 100 µM
HT29 colon
  TGI: > 100 µM
K-562 leukemia
  TGI: > 100 µM
MDA-MB-435
  TGI: > 100 µM
HCT-15 colon
  TGI: > 100 µM
NCI-H522 lung
  TGI: > 100 µM
MCF7 breast
  TGI: > 100 µM
OVCAR-5 ovarian
  TGI: > 100 µM
MALME-3M melanoma
  TGI: > 100 µM
PC-3 prostate
  TGI: > 100 µM
TK-10 renal
  TGI: > 100 µM
EKVX NSCLC
  TGI: > 100 µM
IGROV1 ovarian
  TGI: > 100 µM
OVCAR-4 ovarian
  TGI: > 100 µM
HL-60(TB) leukemia
  TGI: 28 µM
UACC-62 melanoma
  TGI: > 100 µM
U251 CNS
  TGI: 92.1 µM
MOLT-4 leukemia
  TGI: 26.9 µM
HCT-116 colon
  TGI: > 100 µM
RXF 393 renal
  TGI: 47.1 µM
SF-295 CNS
  TGI: > 100 µM
HOP-62 NSCLC
  TGI: 53.9 µM
COLO 205 colon
  TGI: > 100 µM
HS 578T breast
  TGI: 38.5 µM
OVCAR-3 ovarian
  TGI: > 100 µM
RPMI-8226 leukemia
  TGI: > 100 µM
SN12C renal
  TGI: > 100 µM
KM12 colon
  TGI: > 100 µM
BT-549 breast
  TGI: > 100 µM
SNB-75 CNS
  TGI: 37.1 µM
SK-MEL-28 melanoma
  TGI: > 100 µM
A498 renal
  TGI: > 100 µM
NCI/ADR-RES ovarian
  TGI: > 100 µM
HCC-2998 colon
  TGI: > 100 µM
SF-268 CNS
  TGI: > 100 µM
UO-31 renal
  TGI: > 100 µM
MDA-N
  TGI: > 100 µM

## C=C1CCc2ccccc2C1=O
OVCAR-8 ovarian
  TGI: > 100 µM
NCI-H23 lung
  TGI: > 100 µM
ACHN renal
  TGI: > 100 µM
NCI-H226 lung
  TGI: > 100 µM
M14 melanoma
  TGI: > 100 µM
SF-539 CNS
  TGI: > 100 µM
786-0 renal
  TGI: > 100 µM
SK-MEL-2 melanoma
  TGI: > 100 µM
MDA-MB-231 breast
  TGI: > 100 µM
SK-MEL-5 melanoma
  TGI: > 100 µM
SR leukemia
  TGI: 78.9 µM
UACC-257 melanoma
  TGI: > 100 µM
DU-145 prostate
  TGI: > 100 µM
SW-620 colon
  TGI: > 100 µM
SNB-19 CNS
  TGI: > 100 µM
CAKI-1 renal
  TGI: > 100 µM
NCI-H460 lung
  TGI: > 100 µM
HT29 colon
  TGI: > 100 µM
K-562 leukemia
  TGI: > 100 µM
MDA-MB-435
  TGI: > 100 µM
HCT-15 colon
  TGI: > 100 µM
NCI-H522 lung
  TGI: > 100 µM
MCF7 breast
  TGI: > 100 µM
OVCAR-5 ovarian
  TGI: > 100 µM
A549 NSCLC
  TGI: > 100 µM
MALME-3M melanoma
  TGI: > 100 µM
PC-3 prostate
  TGI: > 100 µM
TK-10 renal
  TGI: > 100 µM
EKVX NSCLC
  TGI: > 100 µM
IGROV1 ovarian
  TGI: > 100 µM
OVCAR-4 ovarian
  TGI: > 100 µM
HL-60(TB) leukemia
  TGI: > 100 µM
UACC-62 melanoma
  TGI: > 100 µM
U251 CNS
  TGI: > 100 µM
MOLT-4 leukemia
  TGI: > 100 µM
HCT-116 colon
  TGI: > 100 µM
RXF 393 renal
  TGI: > 100 µM
SF-295 CNS
  TGI: > 100 µM
HOP-62 NSCLC
  TGI: > 100 µM
COLO 205 colon
  TGI: > 100 µM
HS 578T breast
  TGI: > 100 µM
OVCAR-3 ovarian
  TGI: > 100 µM
RPMI-8226 leukemia
  TGI: > 100 µM
SN12C renal
  TGI: > 100 µM
KM12 colon
  TGI: > 100 µM
BT-549 breast
  TGI: > 100 µM
HOP-92 NSCLC
  TGI: > 100 µM
SNB-75 CNS
  TGI: > 100 µM
A498 renal
  TGI: > 100 µM
CCRF-CEM leukemia
  TGI: > 100 µM
NCI/ADR-RES ovarian
  TGI: > 100 µM
HCC-2998 colon
  TGI: > 100 µM
SF-268 CNS
  TGI: > 100 µM
UO-31 renal
  TGI: > 100 µM
SK-OV-3 ovarian
  TGI: > 100 µM
MDA-N
  TGI: > 100 µM

## COc1ccc(Nc2nc3cc(C(F)(F)F)ccc3nc2C(=O)O)cc1
OVCAR-8 ovarian
  TGI: 46.7 µM
NCI-H23 lung
  TGI: 30 µM
ACHN renal
  TGI: > 100 µM
NCI-H226 lung
  TGI: 54.1 µM
786-0 renal
  TGI: 43.9 µM
SK-MEL-2 melanoma
  TGI: 28 µM
MDA-MB-231 breast
  TGI: > 100 µM
SK-MEL-5 melanoma
  TGI: 58.5 µM
SR leukemia
  TGI: 34.1 µM
UACC-257 melanoma
  TGI: 50.7 µM
DU-145 prostate
  TGI: > 100 µM
SW-620 colon
  TGI: 77.6 µM
SNB-19 CNS
  TGI: 72.2 µM
CAKI-1 renal
  TGI: > 100 µM
NCI-H460 lung
  TGI: 53.3 µM
HT29 colon
  TGI: > 100 µM
K-562 leukemia
  TGI: 44.4 µM
MDA-MB-435
  TGI: 48.1 µM
HCT-15 colon
  TGI: 39 µM
NCI-H522 lung
  TGI: 30 µM
MCF7 breast
  TGI: 51.7 µM
OVCAR-5 ovarian
  TGI: 60.6 µM
MALME-3M melanoma
  TGI: 41.4 µM
PC-3 prostate
  TGI: 57 µM
TK-10 renal
  TGI: > 100 µM
EKVX NSCLC
  TGI: 67.5 µM
IGROV1 ovarian
  TGI: 90.2 µM
OVCAR-4 ovarian
  TGI: > 100 µM
HL-60(TB) leukemia
  TGI: 83.6 µM
UACC-62 melanoma
  TGI: 27.2 µM
U251 CNS
  TGI: 30.4 µM
MOLT-4 leukemia
  TGI: 28.6 µM
HCT-116 colon
  TGI: 33.5 µM
RXF 393 renal
  TGI: 26.8 µM
SF-295 CNS
  TGI: 35.7 µM
HOP-62 NSCLC
  TGI: 30.4 µM
COLO 205 colon
  TGI: 46.7 µM
HS 578T breast
  TGI: 55.5 µM
OVCAR-3 ovarian
  TGI: 34.1 µM
SN12C renal
  TGI: > 100 µM
LOX IMVI melanoma
  TGI: 40.8 µM
KM12 colon
  TGI: 92.4 µM
BT-549 breast
  TGI: 29.2 µM
SNB-75 CNS
  TGI: 48.3 µM
SK-MEL-28 melanoma
  TGI: > 100 µM
A498 renal
  TGI: 35 µM
NCI/ADR-RES ovarian
  TGI: 61 µM
HCC-2998 colon
  TGI: 31.9 µM
SF-268 CNS
  TGI: 39.5 µM
UO-31 renal
  TGI: 26.5 µM
MDA-N
  TGI: > 100 µM
